Results taken from ChEMBL document CHEMBL4138105, “LL-37-derived short antimicrobial peptide KR-12-a5 and its d-amino acid substituted analogs with cell selectivity, anti-biofilm activity, synergistic effect with conventional antibiotics, and anti-inflammatory activity” (Eur J Med Chem, 2017).
In brackets after ≈: the same amount, converted by molar mass. Activity calls are given as the source filed them. The rule behind the calls is not given here.

Legend:
RAW264.7 [1] = assay: Anti-inflammatory activity in mouse RAW264.7 cells assessed as reduction in LPS-induced TNF-alpha production at 10 to 20 uM preincubated for 1 hr followed by LPS stimulation measured after 6 hrs by ELISA; assay type: functional, cell-based
Enterococcus faecium [2] = assay: Potency index, ratio of LL-37 MIC to compound MIC for Vancomycin-resistant Enterococcus faecium ATCC 51559; assay type: functional
Staphylococcus aureus [3] = assay: Potency index, ratio of LL-37 MIC to compound MIC for methicillin resistant Staphylococcus aureus CCARM 3090; assay type: functional
[4] = test system: Staphylococcus epidermidis; assay: Antibacterial activity against Staphylococcus epidermidis KCTC 1917 after 24 hrs; assay type: functional; conditions: KCTC 1917, 24 h
Pseudomonas aeruginosa [5] = assay: Potency index, ratio of melittin MIC to compound MIC for multidrug-resistant Pseudomonas aeruginosa CCARM 2109; assay type: functional
Escherichia coli [6] = assay: Antibacterial activity against Escherichia coli KCTC 1682 after 24 hrs; assay type: functional; conditions: KCTC 1682, 24 h
Pseudomonas aeruginosa [7] = assay: Antibacterial activity against multidrug-resistant Pseudomonas aeruginosa CCARM 2109 after 24 hrs; assay type: functional; conditions: CCARM 2109, 24 h
Staphylococcus aureus [8] = assay: Potency index, ratio of melittin MIC to compound MIC for methicillin resistant Staphylococcus aureus CCARM 3095; assay type: functional
Staphylococcus aureus [9] = assay: Antibacterial activity against Staphylococcus aureus KCTC 1621 assessed as cytoplasmic membrane depolarization at 2 times MIC by disC3-5 dye based fluorescence assay; assay type: functional, organism-based
Staphylococcus aureus [10] = assay: Antibacterial activity against Staphylococcus aureus KCTC 1621 in presence of 20% human serum after 24 hrs; assay type: functional; conditions: KCTC 1621, 24 h
Pseudomonas aeruginosa [11] = assay: Antibiofilm activity against multidrug-resistant Pseudomonas aeruginosa CCARM 2095 after 24 hrs by crystal violet staining based assay; assay type: functional
Enterococcus faecium [12] = assay: Potency index, ratio of melittin MIC to compound MIC for Vancomycin-resistant Enterococcus faecium ATCC 51559; assay type: functional
Staphylococcus aureus [13] = assay: Antibacterial activity against methicillin resistant Staphylococcus aureus CCARM 3090 after 24 hrs; assay type: functional; conditions: CCARM 3090, 24 h
[14] = Therapeutic index, ratio of MHC10 for human RBC to MIC for Escherichia coli KCTC 1682; assay type: toxicity; conditions: red blood cells (RBC), pooled result: one value given for 6 cell lines, strains, targets or settings, read-out: TI
Pseudomonas aeruginosa [15] = assay: Synergistic antibacterial activity against multidrug-resistant Pseudomonas aeruginosa CCARM 2095 after 72 hrs in presence of ciprofloxacin by chequerboard assay; assay type: functional
Staphylococcus aureus [16] = assay: Potency index, ratio of LL-37 MIC to compound MIC for methicillin resistant Staphylococcus aureus CCARM 3095; assay type: functional
Pseudomonas aeruginosa [17] = assay: Potency index, ratio of LL-37 MIC to compound MIC for multidrug-resistant Pseudomonas aeruginosa CCARM 2095; assay type: functional
Pseudomonas aeruginosa [18] = assay: Potency index, ratio of LL-37 MIC to compound MIC for multidrug-resistant Pseudomonas aeruginosa CCARM 2109; assay type: functional
Staphylococcus aureus [19] = assay: Antibacterial activity against Staphylococcus aureus KCTC 1621 in presence of 6 uM NH4Cl after 24 hrs; assay type: functional; conditions: KCTC 1621, 24 h
Escherichia coli [20] = assay: Antibacterial activity against Escherichia coli KCTC 1682 in presence of 20% human serum after 24 hrs; assay type: functional; conditions: KCTC 1682, 24 h
Escherichia coli [21] = assay: Antibacterial activity against Escherichia coli KCTC 1682 in presence of 6 uM NH4Cl after 24 hrs; assay type: functional; conditions: KCTC 1682, 24 h
Pseudomonas aeruginosa [22] = assay: Potency index, ratio of melittin MIC to compound MIC for multidrug-resistant Pseudomonas aeruginosa CCARM 2095; assay type: functional
RAW264.7 [23] = assay: Cytotoxicity against mouse RAW264.7 cells up to 128 uM after 48 hrs by MTT assay; assay type: cell-based; conditions: raw264.7, 48 h
RAW264.7 [24] = assay: Anti-inflammatory activity in mouse RAW264.7 cells assessed as reduction in LPS-induced iNOS mRNA expression at 5 uM after 6 hrs by RT-PCR analysis; assay type: functional, cell-based
Staphylococcus aureus [25] = assay: Antibacterial activity against methicillin resistant Staphylococcus aureus CCARM 3089 after 24 hrs; assay type: functional; conditions: CCARM 3089, 24 h
Erythrocyte = assay: Hemolytic activity in human RBC after 1 hr; assay type: ADME, cell-based
Pseudomonas aeruginosa [26] = assay: Antibacterial activity against multidrug-resistant Pseudomonas aeruginosa CCARM 2095 after 24 hrs; assay type: functional; conditions: CCARM 2095, 24 h
Pseudomonas aeruginosa [27] = assay: Synergistic antibacterial activity against multidrug-resistant Pseudomonas aeruginosa CCARM 2095 after 72 hrs in presence of oxacillin by chequerboard assay; assay type: functional
Staphylococcus aureus [28] = assay: Potency index, ratio of melittin MIC to compound MIC for methicillin resistant Staphylococcus aureus CCARM 3089; assay type: functional
Salmonella typhimurium = assay: Antibacterial activity against Salmonella typhimurium KCTC 11926 after 24 hrs; assay type: functional, Salmonella enterica subsp. enterica serovar Typhimurium; conditions: Salmonella enterica, KCTC 11926, 24 h
Staphylococcus aureus [29] = assay: Potency index, ratio of melittin MIC to compound MIC for methicillin resistant Staphylococcus aureus CCARM 3090; assay type: functional
Pseudomonas aeruginosa [30] = assay: Potency index, ratio of LL-37 MBIC90 to compound MBIC90 for antibiofilm activity against multidrug-resistant Pseudomonas aeruginosa CCARM 2095; assay type: functional
Staphylococcus aureus [31] = assay: Antibacterial activity against Staphylococcus aureus KCTC 1621 in presence of 1 mM MgCl2 after 24 hrs; assay type: functional; conditions: KCTC 1621, 24 h
Escherichia coli [32] = assay: Antibacterial activity against Escherichia coli KCTC 1682 in presence of 1 mM MgCl2 after 24 hrs; assay type: functional; conditions: KCTC 1682, 24 h
Staphylococcus aureus [33] = assay: Ratio of MIC for Staphylococcus aureus KCTC 1621 in presence of 20% human serum to MIC for Escherichia coli KCTC 1682 in presence of 20% human serum; assay type: functional
RAW264.7 [34] = assay: Anti-inflammatory activity in mouse RAW264.7 cells assessed as reduction in LPS-induced IL-6 mRNA expression at 10 uM after 3 hrs by RT-PCR analysis; assay type: functional, cell-based
Staphylococcus aureus [35] = assay: Antibacterial activity against Staphylococcus aureus KCTC 1621 in presence of 2.5 mM CaCl2 after 24 hrs; assay type: functional; conditions: KCTC 1621, 24 h
Escherichia coli [36] = assay: Antibacterial activity against Escherichia coli KCTC 1682 in presence of 2.5 mM CaCl2 after 24 hrs; assay type: functional; conditions: KCTC 1682, 24 h
Staphylococcus aureus [37] = assay: Antibacterial activity against methicillin resistant Staphylococcus aureus CCARM 3095 after 24 hrs; assay type: functional; conditions: CCARM 3095, 24 h
RAW264.7 [38] = assay: Anti-inflammatory activity in mouse RAW264.7 cells assessed as reduction in LPS-induced MCP-1 mRNA expression at 10 uM after 3 hrs by RT-PCR analysis; assay type: functional, cell-based
[39] = Binding affinity to EYPC/cholesterol small unilamellar vesicles assessed as intrinsic tryptophan acrylamide quenching constant by fluorescence assay (reference value: 5.95 to 7.56 /M)
NIH3T3 = assay: Cytotoxicity against mouse NIH/3T3 cells up to 128 uM after 48 hrs by MTT assay; assay type: cell-based; conditions: nih3t3, 48 h
Staphylococcus aureus [40] = assay: Antibacterial activity against Staphylococcus aureus KCTC 1621 in presence of 150 mM NaCl after 24 hrs; assay type: functional; conditions: KCTC 1621, 24 h
Lipid bilayer = assay: Binding affinity to EYPE/EYPG small unilamellar vesicles assessed as intrinsic tryptophan acrylamide quenching constant by fluorescence assay (reference value: 5.95 to 7.56 /M)
Bacillus subtilis = assay: Antibacterial activity against Bacillus subtilis KCTC 3068 after 24 hrs; assay type: functional; conditions: KCTC 3068, 24 h

Compound: CC[C@H](C)[C@H](NC(=O)[C@H](CCCNC(=N)N)NC(=O)[C@@H](N)CCCCN)C(=O)N[C@H](C(=O)N[C@@H](CCCCN)C(=O)N[C@H](CC(C)C)C(=O)N[C@H](C(=O)N[C@@H](CC(C)C)C(=O)N[C@@H](CCCCN)C(=O)N[C@@H](Cc1c[nH]c2ccccc12)C(=O)N[C@@H](CC(C)C)C(=O)N[C@@H](CCCNC(=N)N)C(N)=O)[C@@H](C)CC)C(C)C
- Activity (RAW264.7 [1]): Active
- Ratio (Enterococcus faecium [2]): 2 - 4
- Ratio (Staphylococcus aureus [3]): 2 - 4
- MIC [4]: 4 µM (≈ 6.26 µg/mL)
- Ratio (Pseudomonas aeruginosa [5]): 2 - 4
- MIC (Escherichia coli [6]): 4 µM (≈ 6.26 µg/mL)
- MIC (Pseudomonas aeruginosa [7]): 4 µM (≈ 6.26 µg/mL)
- Ratio (Staphylococcus aureus [8]): 2 - 4
- Activity (Staphylococcus aureus [9]): Active
- MIC (Staphylococcus aureus [10]): 16 µM
- MBIC90 (Pseudomonas aeruginosa [11]): 16 µM
- Ratio (Enterococcus faecium [12]): 2 - 4
- MIC (Staphylococcus aureus [13]): 4 µM (≈ 6.26 µg/mL)
- selectivity ratio [14]: 61.2
- fractional inhibitory concentration index (FICI) (Pseudomonas aeruginosa [15]): 0.3125
- Ratio (Staphylococcus aureus [16]): 2 - 4
- Ratio (Pseudomonas aeruginosa [17]): 2 - 4
- Ratio (Pseudomonas aeruginosa [18]): 2 - 4
- MIC (Staphylococcus aureus [19]): 2 µM
- MIC (Escherichia coli [20]): 8 µM
- MIC (Escherichia coli [21]): 4 µM
- Ratio (Pseudomonas aeruginosa [22]): 2 - 4
- Activity (RAW264.7 [23]): Non-Toxic
- Activity (RAW264.7 [24]): Active
- MIC (Staphylococcus aureus [25]): 4 µM (≈ 6.26 µg/mL)
- MHC10 (Erythrocyte): 202 µM
- MIC (Pseudomonas aeruginosa [26]): 8 µM (≈ 12.5 µg/mL)
- fractional inhibitory concentration index (FICI) (Pseudomonas aeruginosa [27]): 0.5
- Ratio (Staphylococcus aureus [28]): 2 - 4
- MIC (Salmonella typhimurium): 2 µM (≈ 3.13 µg/mL)
- Ratio (Staphylococcus aureus [29]): 2 - 4
- fold change (FC) (Pseudomonas aeruginosa [30]): 4 - 8
- MIC (Staphylococcus aureus [31]): 4 µM
- MIC (Escherichia coli [32]): 4 µM
- Ratio (Staphylococcus aureus [33]): 2 - 8
- Activity (RAW264.7 [34]): Active
- MIC (Staphylococcus aureus [35]): 8 µM
- MIC (Escherichia coli [36]): 16 µM
- MIC (Staphylococcus aureus [37]): 4 µM (≈ 6.26 µg/mL)
- Activity (RAW264.7 [38]): Active
- KSV [39]: 2.9 M⁻¹
- Activity (NIH3T3): Non-Toxic
- MIC (Staphylococcus aureus [40]): 8 µM
- KSV (Lipid bilayer): 0.97 M⁻¹
- MIC (Bacillus subtilis): 4 µM (≈ 6.26 µg/mL)
